Data taken from US11691980B2, “Liphagal analog and multi-targeted kinase inhibitor containing liphagal or analog thereof” (TOHOKU UNIVERSITY, priority 2017, dated 2023).

Legend:
Format in all cases: biochemical
PDGFRα = target: T1, PDGFRα (Homo sapiens, UniProt P16234); test: mobility shift assay
T1 construct: purchased Carna Biosciences

CGK2 = target: T2, CGK2 (Homo sapiens, UniProt Q13237); test: mobility shift assay
T2 construct: purchased Carna Biosciences

FGFR2 = target: T3, FGFR2 (Homo sapiens, UniProt P21802); test: mobility shift assay
T3 construct: purchased Carna Biosciences

AXL = target: T4, AXL (Homo sapiens, UniProt P30530); test: mobility shift assay
T4 construct: purchased Carna Biosciences

DYRK1B = target: T5, DYRK1B (Homo sapiens, UniProt Q9Y463); test: mobility shift assay
T5 construct: purchased Carna Biosciences

CK1ε = target: T6, CK1ε (Homo sapiens, UniProt P49674); test: mobility shift assay
T6 construct: purchased Carna Biosciences

PDHK2 = target: T7, PDHK2 (Homo sapiens, UniProt Q15119); test: mobility shift assay
T7 construct: purchased Carna Biosciences

MNK = test: mobility shift assay; details: 10 μM
MOS_Cascade = target: T8, MOS_Cascade (Homo sapiens, UniProt P00540); test: mobility shift assay
T8 construct: purchased Carna Biosciences

SGK = target: T9, SGK (Homo sapiens, UniProt O00141); test: mobility shift assay
T9 construct: purchased Carna Biosciences

EPHA3 = target: T10, EPHA3 (Homo sapiens, UniProt P29320); test: mobility shift assay
T10 construct: purchased Carna Biosciences

PASK = target: T11, PASK (Homo sapiens, UniProt Q96RG2); test: mobility shift assay
T11 construct: purchased Carna Biosciences

MAP2K1 Cascade = target: T12, MAP2K1 Cascade (Homo sapiens, UniProt Q02750); test: mobility shift assay
T12 construct: purchased Carna Biosciences

DYRK2 = target: T13, DYRK2 (Homo sapiens, UniProt Q92630); test: mobility shift assay
T13 construct: purchased Carna Biosciences

TYK2 = target: T14, TYK2 (Homo sapiens, UniProt P29597); test: mobility shift assay
T14 construct: purchased Carna Biosciences

SPHK2 = target: T15, SPHK2 (Homo sapiens, UniProt Q9NRA0); test: mobility shift assay
T15 construct: purchased Carna Biosciences

MAP2K7_Cascade = target: T16, MAP2K7_Cascade (Homo sapiens, UniProt O14733); test: mobility shift assay
T16 construct: purchased Carna Biosciences

JNK1 = target: T17, JNK1 (Homo sapiens, UniProt P45983); test: mobility shift assay
T17 construct: purchased Carna Biosciences

BLK = target: T18, BLK (Homo sapiens, UniProt P51451); test: mobility shift assay
T18 construct: purchased Carna Biosciences
T18 sequence (P51451 whole entry): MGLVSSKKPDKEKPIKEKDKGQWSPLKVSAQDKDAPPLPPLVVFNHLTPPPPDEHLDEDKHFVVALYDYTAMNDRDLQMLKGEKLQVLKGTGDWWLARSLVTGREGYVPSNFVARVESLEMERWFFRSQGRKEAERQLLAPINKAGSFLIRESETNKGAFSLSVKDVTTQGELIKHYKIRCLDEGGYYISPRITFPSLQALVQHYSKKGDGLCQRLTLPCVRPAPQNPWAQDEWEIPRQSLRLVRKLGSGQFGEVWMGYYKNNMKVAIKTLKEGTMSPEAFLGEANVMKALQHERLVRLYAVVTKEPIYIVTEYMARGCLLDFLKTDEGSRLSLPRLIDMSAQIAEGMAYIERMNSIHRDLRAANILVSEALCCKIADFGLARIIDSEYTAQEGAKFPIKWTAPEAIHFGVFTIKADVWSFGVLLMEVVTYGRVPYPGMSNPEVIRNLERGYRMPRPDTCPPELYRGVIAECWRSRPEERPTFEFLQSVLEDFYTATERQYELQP

p38δ = target: T19, p38δ (Homo sapiens, UniProt O15264); test: mobility shift assay
T19 construct: purchased Carna Biosciences

p70S6K = target: T20, p70S6K (Homo sapiens, UniProt P23443); test: mobility shift assay
T20 construct: purchased Carna Biosciences

BRSK1 = target: T21, BRSK1 (Homo sapiens, UniProt Q8TDC3); test: mobility shift assay
T21 construct: purchased Carna Biosciences

PAK1 = target: T22, PAK1 (Homo sapiens, UniProt Q13153); test: mobility shift assay
T22 construct: purchased Carna Biosciences

KIT(D816Y) = target: T23, KIT(D816Y) (Homo sapiens, UniProt P10721, D816Y); test: mobility shift assay
T23 construct: purchased Carna Biosciences

PAK2 = target: T24, PAK2 (Homo sapiens, UniProt Q13177); test: mobility shift assay
T24 construct: purchased Carna Biosciences

FGFR4 = target: T25, FGFR4 (Homo sapiens, UniProt P22455); test: mobility shift assay
T25 construct: purchased Carna Biosciences

NEK6 = target: T26, NEK6 (Homo sapiens, UniProt Q9HC98); test: mobility shift assay
T26 construct: purchased Carna Biosciences

RAF1_Cascade = target: T27, RAF1_Cascade (Homo sapiens, UniProt P04049); test: mobility shift assay
T27 construct: purchased Carna Biosciences

EPHA5 = target: T28, EPHA5 (Homo sapiens, UniProt P54756); test: mobility shift assay
T28 construct: purchased Carna Biosciences

MAP2K5 Cascade = target: T29, MAP2K5 Cascade (Homo sapiens, UniProt Q13163); test: mobility shift assay
T29 construct: purchased Carna Biosciences

Erk1 = target: T30, Erk1 (Homo sapiens, UniProt P27361); test: mobility shift assay
T30 construct: purchased Carna Biosciences
T30 sequence (P27361 whole entry): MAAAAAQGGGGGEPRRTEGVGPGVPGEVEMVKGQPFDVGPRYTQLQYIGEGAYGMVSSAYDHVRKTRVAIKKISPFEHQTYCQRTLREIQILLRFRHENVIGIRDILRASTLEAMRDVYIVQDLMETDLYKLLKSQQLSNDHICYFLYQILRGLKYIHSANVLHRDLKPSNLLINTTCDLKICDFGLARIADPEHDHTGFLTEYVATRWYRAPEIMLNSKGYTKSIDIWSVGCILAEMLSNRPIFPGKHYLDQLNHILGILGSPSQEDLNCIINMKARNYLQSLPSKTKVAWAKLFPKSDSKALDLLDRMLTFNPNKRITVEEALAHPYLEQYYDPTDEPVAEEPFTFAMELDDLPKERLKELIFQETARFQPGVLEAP

PLK3 = target: T31, PLK3 (Homo sapiens, UniProt Q9H4B4); test: mobility shift assay
T31 construct: purchased Carna Biosciences

TEC = target: T32, TEC (Homo sapiens, UniProt P42680); test: mobility shift assay
T32 construct: purchased Carna Biosciences
T32 sequence (P42680 whole entry): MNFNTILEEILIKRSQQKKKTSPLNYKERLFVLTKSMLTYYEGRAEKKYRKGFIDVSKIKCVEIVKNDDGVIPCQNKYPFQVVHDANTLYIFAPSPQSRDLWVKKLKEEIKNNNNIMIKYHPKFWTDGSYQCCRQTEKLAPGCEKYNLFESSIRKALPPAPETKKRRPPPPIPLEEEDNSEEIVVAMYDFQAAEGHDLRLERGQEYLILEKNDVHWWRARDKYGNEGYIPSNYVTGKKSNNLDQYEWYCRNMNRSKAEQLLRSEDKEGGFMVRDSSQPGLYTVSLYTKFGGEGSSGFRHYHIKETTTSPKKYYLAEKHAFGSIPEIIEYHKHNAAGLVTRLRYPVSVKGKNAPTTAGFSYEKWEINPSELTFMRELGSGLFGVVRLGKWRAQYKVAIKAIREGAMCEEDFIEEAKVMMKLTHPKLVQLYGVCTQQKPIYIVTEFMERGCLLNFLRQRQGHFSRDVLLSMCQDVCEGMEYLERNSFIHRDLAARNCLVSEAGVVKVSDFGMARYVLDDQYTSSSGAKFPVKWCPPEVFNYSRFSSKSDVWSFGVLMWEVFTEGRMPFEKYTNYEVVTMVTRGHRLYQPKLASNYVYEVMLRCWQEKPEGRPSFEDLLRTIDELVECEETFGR

PKN1 = target: T33, PKN1 (Homo sapiens, UniProt Q16512); test: IMAP Assay
T33 construct: purchased Carna Biosciences
T33 sequence (Q16512 whole entry): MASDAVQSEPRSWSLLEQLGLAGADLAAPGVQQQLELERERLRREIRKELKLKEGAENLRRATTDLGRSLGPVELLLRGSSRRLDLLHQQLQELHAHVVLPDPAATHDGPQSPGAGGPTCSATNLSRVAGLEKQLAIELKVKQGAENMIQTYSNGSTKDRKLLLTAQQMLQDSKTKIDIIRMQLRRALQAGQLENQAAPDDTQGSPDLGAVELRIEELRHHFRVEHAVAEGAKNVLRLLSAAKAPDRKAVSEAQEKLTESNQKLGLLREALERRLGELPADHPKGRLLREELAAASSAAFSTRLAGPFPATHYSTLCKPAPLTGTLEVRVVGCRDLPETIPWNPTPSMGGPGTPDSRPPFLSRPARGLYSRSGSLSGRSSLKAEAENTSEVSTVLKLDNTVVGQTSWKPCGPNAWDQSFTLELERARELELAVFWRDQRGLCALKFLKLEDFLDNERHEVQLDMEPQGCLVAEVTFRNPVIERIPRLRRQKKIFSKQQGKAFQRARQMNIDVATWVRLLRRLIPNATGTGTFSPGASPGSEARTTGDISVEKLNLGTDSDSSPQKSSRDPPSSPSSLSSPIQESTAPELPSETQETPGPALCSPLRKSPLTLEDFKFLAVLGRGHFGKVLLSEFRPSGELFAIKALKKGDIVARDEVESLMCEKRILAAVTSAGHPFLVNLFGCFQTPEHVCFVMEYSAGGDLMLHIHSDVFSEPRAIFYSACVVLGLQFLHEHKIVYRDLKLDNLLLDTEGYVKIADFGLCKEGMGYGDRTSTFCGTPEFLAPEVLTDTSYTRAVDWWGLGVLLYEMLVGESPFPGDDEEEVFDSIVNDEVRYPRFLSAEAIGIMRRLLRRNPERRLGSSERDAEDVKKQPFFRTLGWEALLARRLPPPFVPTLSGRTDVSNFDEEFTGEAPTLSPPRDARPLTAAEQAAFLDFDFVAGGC

EGFR = target: T34, EGFR (Homo sapiens, UniProt P00533); test: mobility shift assay
T34 construct: purchased Carna Biosciences

PKCl = target: T35, PKCl (Homo sapiens, UniProt P41743); test: mobility shift assay
T35 construct: purchased Carna Biosciences
T35 sequence (P41743 whole entry): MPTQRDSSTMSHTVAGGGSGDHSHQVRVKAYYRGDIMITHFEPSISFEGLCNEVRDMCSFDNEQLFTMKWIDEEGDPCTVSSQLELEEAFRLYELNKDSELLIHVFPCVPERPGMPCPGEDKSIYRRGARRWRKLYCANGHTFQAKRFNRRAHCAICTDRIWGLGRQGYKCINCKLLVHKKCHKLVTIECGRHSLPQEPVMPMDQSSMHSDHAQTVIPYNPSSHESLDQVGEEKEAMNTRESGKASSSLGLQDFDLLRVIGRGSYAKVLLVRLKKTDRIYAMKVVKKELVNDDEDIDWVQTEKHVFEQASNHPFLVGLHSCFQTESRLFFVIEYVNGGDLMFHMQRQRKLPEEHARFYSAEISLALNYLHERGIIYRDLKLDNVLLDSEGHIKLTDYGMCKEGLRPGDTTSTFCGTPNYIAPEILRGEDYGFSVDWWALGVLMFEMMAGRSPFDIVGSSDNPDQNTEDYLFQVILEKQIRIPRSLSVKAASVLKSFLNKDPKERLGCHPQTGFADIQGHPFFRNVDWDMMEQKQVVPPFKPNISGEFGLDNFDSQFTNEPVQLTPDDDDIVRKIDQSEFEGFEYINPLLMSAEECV

MUSK = target: T36, MUSK (Homo sapiens, UniProt O15146); test: mobility shift assay
T36 construct: purchased Carna Biosciences

JAK1 = target: T37, JAK1 (Homo sapiens, UniProt P23458); test: mobility shift assay
T37 construct: purchased Carna Biosciences

AKT2 = target: T38, AKT2 (Homo sapiens, UniProt P31751); test: mobility shift assay
T38 construct: purchased Carna Biosciences

CK1y3 = target: T39, CK1y3 (Homo sapiens, UniProt Q9Y6M4); test: mobility shift assay
T39 construct: purchased Carna Biosciences
T39 sequence (Q9Y6M4 whole entry): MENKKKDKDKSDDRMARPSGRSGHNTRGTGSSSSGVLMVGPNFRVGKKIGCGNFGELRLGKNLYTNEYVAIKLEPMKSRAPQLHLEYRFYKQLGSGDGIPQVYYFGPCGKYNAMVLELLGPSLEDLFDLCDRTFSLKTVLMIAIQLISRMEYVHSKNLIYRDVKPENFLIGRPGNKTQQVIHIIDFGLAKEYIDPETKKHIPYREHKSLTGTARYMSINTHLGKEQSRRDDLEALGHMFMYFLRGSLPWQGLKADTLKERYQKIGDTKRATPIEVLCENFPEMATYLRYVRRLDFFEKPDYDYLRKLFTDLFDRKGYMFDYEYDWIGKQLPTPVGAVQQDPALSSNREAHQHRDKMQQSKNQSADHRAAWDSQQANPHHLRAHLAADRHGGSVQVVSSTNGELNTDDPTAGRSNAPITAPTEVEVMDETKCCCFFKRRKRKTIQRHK

AurA/TPX2 = target: T40, AurA/TPX2 (Homo sapiens, UniProt O14965); test: mobility shift assay
T40 construct: purchased Carna Biosciences
T40 sequence (O14965 whole entry): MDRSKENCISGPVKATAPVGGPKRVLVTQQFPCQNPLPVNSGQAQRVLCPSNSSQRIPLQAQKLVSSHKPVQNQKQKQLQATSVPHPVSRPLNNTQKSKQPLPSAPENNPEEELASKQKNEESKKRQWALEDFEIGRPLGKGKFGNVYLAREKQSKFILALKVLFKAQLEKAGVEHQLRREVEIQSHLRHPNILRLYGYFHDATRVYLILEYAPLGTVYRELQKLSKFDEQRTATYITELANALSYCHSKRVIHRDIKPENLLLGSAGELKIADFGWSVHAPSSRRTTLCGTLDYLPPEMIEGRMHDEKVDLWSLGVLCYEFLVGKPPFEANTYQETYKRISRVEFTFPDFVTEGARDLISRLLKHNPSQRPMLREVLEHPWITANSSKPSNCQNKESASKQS
T40 sequence (Q9ULW0 1-43 partner limits assumed): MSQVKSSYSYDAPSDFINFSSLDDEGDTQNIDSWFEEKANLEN

PBK = target: T41, PBK (Homo sapiens, UniProt Q96KB5); test: mobility shift assay
T41 construct: purchased Carna Biosciences

T2 sequence (Q13237 whole entry): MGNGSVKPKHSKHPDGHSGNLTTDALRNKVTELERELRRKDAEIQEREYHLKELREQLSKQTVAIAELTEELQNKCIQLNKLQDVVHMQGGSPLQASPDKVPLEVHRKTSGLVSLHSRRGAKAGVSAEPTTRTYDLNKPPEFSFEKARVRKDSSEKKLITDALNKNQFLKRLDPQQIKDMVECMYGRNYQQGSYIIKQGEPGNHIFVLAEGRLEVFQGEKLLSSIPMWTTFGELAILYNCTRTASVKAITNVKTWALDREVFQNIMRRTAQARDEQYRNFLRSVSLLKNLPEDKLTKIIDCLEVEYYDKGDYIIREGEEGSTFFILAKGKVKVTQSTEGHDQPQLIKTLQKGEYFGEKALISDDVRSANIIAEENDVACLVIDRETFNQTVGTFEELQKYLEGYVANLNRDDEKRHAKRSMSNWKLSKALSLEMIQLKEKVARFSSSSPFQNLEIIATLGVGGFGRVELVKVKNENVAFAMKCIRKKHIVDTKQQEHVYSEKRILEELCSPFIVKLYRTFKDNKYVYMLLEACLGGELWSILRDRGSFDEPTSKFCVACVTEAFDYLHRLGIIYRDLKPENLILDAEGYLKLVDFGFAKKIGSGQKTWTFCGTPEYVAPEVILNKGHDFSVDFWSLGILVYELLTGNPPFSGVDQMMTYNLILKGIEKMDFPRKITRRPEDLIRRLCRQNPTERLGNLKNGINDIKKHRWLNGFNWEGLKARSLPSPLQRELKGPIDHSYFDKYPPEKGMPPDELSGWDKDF

Molecule `C[C@@H]1CC[C@H]2C(C)(C)CCC[C@]2(C)c2c1oc1c(C=O)c(O)c(O)cc21` [LG-1, liphagal] has an inhibition at 10 µM (PDGFRα) of 8.2%, an inhibition at 10 µM (CGK2) of 7.3% and an inhibition at 10 µM (FGFR2) of -8.4%. For the same molecule, the inhibition at 10 µM (AXL) was -4.2%, the inhibition at 10 µM (DYRK1B) was 21.8% and the inhibition at 10 µM (CK1ε) was 37.7%. The inhibition at 10 µM (PDHK2) was 47.2%, the “% Inhibition” value (MNK) was 0.0% and the inhibition at 10 µM (MOS_Cascade) was 29.5%. The inhibition at 10 µM (SGK) was 12.4%, the inhibition at 10 µM (EPHA3) was -2.8% and the inhibition at 10 µM (PASK) was 17.4%. It also gave an inhibition at 10 µM (MAP2K1 Cascade) of 4.1%, an inhibition at 10 µM (DYRK2) of 18.9% and an inhibition at 10 µM (TYK2) of -6.5%. It also gave an inhibition at 10 µM (SPHK2) of 17.4%, an inhibition at 10 µM (MAP2K7_Cascade) of 5.5% and an inhibition at 10 µM (JNK1) of -10.8%. It also gave an inhibition at 10 µM (BLK) of 29.4%, an inhibition at 10 µM (p38δ) of -0.1% and an inhibition at 10 µM (p70S6K) of 15.9%. The inhibition at 10 µM (BRSK1) was 9.2%, the inhibition at 10 µM (PAK1) was 0.5% and the inhibition at 10 µM (KIT(D816Y)) was 6.2%. It also gave an inhibition at 10 µM (PAK2) of 12.4%, an inhibition at 10 µM (FGFR4) of 7.5% and an inhibition at 10 µM (NEK6) of 65.4%. It also gave an inhibition at 10 µM (RAF1_Cascade) of 15.3%, an inhibition at 10 µM (EPHA5) of 2.3% and an inhibition at 10 µM (MAP2K5 Cascade) of -1.3%. For the same molecule, the inhibition at 10 µM (Erk1) was -4.4%, the inhibition at 10 µM (PLK3) was 31.1% and the inhibition at 10 µM (TEC) was -1.2%. It also gave an inhibition at 10 µM (PKN1) of 5.3%, an inhibition at 10 µM (EGFR) of -4.4% and an inhibition at 10 µM (PKCl) of 12.3%. It also gave an inhibition at 10 µM (MUSK) of -8.4%, an inhibition at 10 µM (JAK1) of 14.9% and an inhibition at 10 µM (AKT2) of 6.2%. For the same molecule, the inhibition at 10 µM (CK1y3) was 3%, the inhibition at 10 µM (AurA/TPX2) was 12.2% and the inhibition at 10 µM (PBK) was 13%.
